The record followed here is patent EP0966282B1, “USE OF THE ANGIOTENSIN II ANTAGONISTS LOSARTAN AND EXP-3174 TO TREAT SYMPTOMATIC HEART FAILURE” (priority 1997, dated 1998).

Structures are written as SMILES. Like-named read-outs stand apart in the source and are kept apart here.

For this assay, the system named is older patients with symptomatic heart failure. The conditions noted are these: for hospitalized overall for any reason: 48-week study observation period, p=0.018. An excerpt:
The study was approved by institutional review boards at each site; all patients gave written informed consent. An independent Data and Safety Monitoring Committee monitored the progress of the study. See Pitt B, Chang P, Timmermans P. Angiotensin II receptor antagonists in heart failure: Rationale and design of the Evaluation of Losartan in the Elderly (ELITE) Trial. Cardiovascular Drugs and Therapy 1995; 9: 693-700.
A detailed description of enrollment and exclusion criteria and study design has been presented previously. See Pitt B, Chang P, Timmermans P. Angiotensin II receptor antagonists in heart failure: Rationale and design of the Evaluation of Losartan in the Elderly (ELITE) Trial. Cardiovascular Drugs and Therapy 1995; 9: 693-700.
Titration generally occurred at 7-day intervals as tolerated. Treatment with all other concomitant cardiovascular therapies was permitted with the exception of open-label ACE inhibitors. Randomized patients were stratified by age (less than 70 and 70 years or greater).
Clinical assessments were performed weekly during titration and at three-month intervals thereafter. Laboratory evaluations were performed at weeks three, six, and twelve, and at three month intervals thereafter.
See Example 2) Hypotension-related symptoms, clinically important serum potassium increases (≥ 0.5 mEq/L), and cough, all originally secondary endpoints, were moved to tertiary endpoints. All deaths (including cause of death) and hospitalizations were adjudicated by an independent Clinical Endpoint Adjudication Committee, blinded to study treatment (see panel for mortality classification). Other prospectively-defined measures included myocardial infarction/hospitalization for unstable angina, worsening of heart failure, New York Heart Association functional classification, discontinuation from the study due to study drug intolerance, changes in neurohormonal profile.
• Sudden Cardiac Death: Death occurring without warning or within 1 hour of symptoms • Death due to Progressive Heart Failure: Death preceded by worsening signs and/or symptoms of heart failure, including cardiogenic shock • Fatal Myocardial Infarction: Death associated with autopsy-verified myocardial infarction or death within 28 days of a hospital-verified acute myocardial infarction provided no other cardiac or non-cardiac cause of death is found • Death due to Other Cardiac Causes: Death due to other cardiac causes, such as arrhythmia • Death due to Other Vascular Causes: Death due to vascular events such as stroke, pulmonary embolus, ruptured aneurysm, etc. • Death due to non-cardiovascular causes: Death not due to any cardiac or vascular events
The power and sample-size estimates for this study have been described. See Pitt B, Chang P, Timmermans P. Angiotensin II receptor antagonists in heart failure: Rationale and design of the Evaluation of Losartan in the Elderly (ELITE) Trial. Cardiovascular Drugs and Therapy 1995; 9: 693-700. Analysis of renal dysfunction (increases in serum creatinine) was based upon a modified intent-to-treat population; i.e., all patients were analyzed according to their randomization group, and an endpoint was declared only if initial and confirmatory elevations occurred while on double-blind therapy. Patients who discontinued from the study without meeting this endpoint were censored in the time-to-event analysis at the time of study discontinuation.
Analyses of deaths and heart failure hospitalizations (adjudicated endpoints) were based on an intent-to-treat population; all patients discontinued prematurely were followed through the specified 48-week period of the study. Patients not meeting the endpoint were censored in the time-to-event analysis either at the time of study completion (for patients who completed) or at the end of the 48-week follow-up period (for patients who discontinued).
For all time-to-event data, survival analyses were based upon the log-rank test.

As to `C[C@H](CS)C(=O)N1CCC[C@H]1C(=O)O` [Captopril, captopril, reference compound], the “hospitalized overall for any reason” value is 32.2%. Besides, where the note is “number of patients”, the “hospitalized overall for any reason” value turned out to be 119 patients and the Fatal myocardial infarction entry is listed as “four”. Also, the “incidence of heart failure hospitalizations” value (48 weeks) was found to be 5.7%. The “incidence of death due to progressive heart failure” value (human, in vivo) was “less than one”. In addition, for the setting “intent-to-treat, 48 weeks”, the “Cause of death: Cardiovascular, Fatal Myocardial Infarction” value is recorded as 4 ( 1.1) number (percent) of patients; the “Cause of death: Cardiovascular, Other Vascular” value was 5 ( 1.4) number (percent) of patients; the “Cause of death: Cardiovascular, Progressive Heart Failure” value was 1 ( 0.3) number (percent) of patients; the “Cause of death: Cardiovascular, Sudden Death” value is reported as 14 ( 3.8) number (percent) of patients. Under “intent-to-treat, 48 weeks”, the “Cause of death: Non-cardiovascular” value is listed as 8 ( 2.2) number (percent) of patients, the “Death and/or Hospitalization for Heart Failure” value is on record as 49 (13.2) number (percent) of patients, the “Hospitalization for Heart Failure” value is 21 ( 5.7) number (percent) of patients and the “total mortality” value was 32 ( 8.7) number (percent) of patients. Besides, for the setting “number of patients in each treatment group”, the “died of progressive heart failure” value is “one”. For the setting “number of patients, p=0.035”, the total mortality is recorded as 32 patients. The sudden cardiac death (number of patients, p=0.043) is given as 14 patients. Moreover, the “death and/or heart failure hospitalizations” value (of 352 losartan-treated, of 370 captopril-treated patients) was 49 patients. In addition, the “death and/or heart failure hospitalizations” value (percent of patients, p=0.075) was found to be 13.2%. Moreover, where the note is “subpopulation of female patients: of 118 losartan-treated, of 122 captopril-treated”, the female patients died was determined as 8 patients. Moreover, the “patients classified as New York Heart Association Class I or II at the end of the study” value (week 48, versus 66 percent (losartan) and 64 percent (captopril) at baseline) is 82%.
